We go through 30 compounds from US10781201B2, “Benzimidazole derivative having JNK inhibitory activity and use thereof” (INDUSTRY-UNIVERSITY COOPERATION FOUNDATION HANYANG …, priority 2017, dated 2020).

What is called IC50 is the concentration at which inhibition is half-maximal. Low readings indicate greater potency in that assay, high ones weaker potency in that assay.

Chain of human JNK3 enzyme (P53779 whole entry): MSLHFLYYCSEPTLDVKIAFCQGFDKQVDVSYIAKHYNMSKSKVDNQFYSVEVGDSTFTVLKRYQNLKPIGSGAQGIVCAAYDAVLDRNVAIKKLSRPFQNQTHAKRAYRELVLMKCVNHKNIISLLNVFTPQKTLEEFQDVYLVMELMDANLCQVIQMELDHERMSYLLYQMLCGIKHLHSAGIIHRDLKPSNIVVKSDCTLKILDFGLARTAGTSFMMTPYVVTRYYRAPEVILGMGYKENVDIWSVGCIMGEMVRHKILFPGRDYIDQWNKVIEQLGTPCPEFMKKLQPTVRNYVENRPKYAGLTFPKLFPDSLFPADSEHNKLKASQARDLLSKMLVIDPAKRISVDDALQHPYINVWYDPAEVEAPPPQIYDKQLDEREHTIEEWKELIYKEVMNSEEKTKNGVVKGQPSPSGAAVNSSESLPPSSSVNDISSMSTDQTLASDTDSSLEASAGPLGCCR

The target in the first test is human JNK3 enzyme (Homo sapiens, UniProt P53779). Nature of the test: Measurement of JNK3 enzymatic activity (33P-ATP filter-binding method). The test is classed as biochemical. To be noted: Table 1; ATP 10 μM, ATF2 3 μM. How it is done:
First, a substrate was added to a prepared base reaction buffer solution (20 mM Hepes (pH 7.5), 10 mM MgCl2, 1 mM EGTA, 0.02% Brij35, 0.02 mg/ml BSA, 0.1 mM Na3VO4, 2 mM DTT, 1% DMSO), a human JNK3 enzyme was added into the prepared substrate solution, and the resulting solution was mixed. ATP (10 μM) and ATF2 (3 μM) were used as substrates, and among them, ATP was used as a common substrate. Next, the compound according to the present invention dissolved in 100% DMSO was added to an enzyme reaction solution, and incubated at room temperature for 20 minutes. Subsequently, ^33P-ATP was added to the mixed reaction solution to initiate the reaction, followed by incubation at room temperature for 2 hours, and enzymatic activity was detected by a filter-binding method. Specifically, 25 al per resulting solution was slowly spotted on P81 paper and placed in a scintillation vial, and then the paper was washed four times with 0.75% phosphoric acid for 10 minutes each and washed once with acetone for 5 minutes. 5 ml of a scintillation cocktail was added to the scintillation vial and signals were read using a scintillation counter.
Regarding `Oc1ccc2c(c1)nc(-c1ccc3ccccc3c1)n2-c1ccnc(NC2CCOCC2)n1` [Compound 9a, 2-(naphthalene-2-yl)-1-(2-((tetrahydro-2H-pyran-4-yl)amino)pyrimidin-4-yl)-1H-benzo[d]imidazole-5-ol], the IC50 was more than 100 nM. `Oc1ccc2c(c1)nc(-c1ccc3c(c1)OCCO3)n2-c1ccnc(NC2CCOCC2)n1` [Compound 9c, 2-(2,3-dihydrobenzo[b][1,4]dioxin-6-yl)-1-(2-((tetrahydro-2H-pyran-4-yl)amino)pyrimidin-4-yl)-1H-benzo[d]imidazole-5-ol]: the IC50 was more than 100 nM. `Oc1ccc2c(c1)nc(-c1ccc3occc3c1)n2-c1ccnc(NC2CCOCC2)n1` [Compound 9d, 2-(benzofuran-5-yl)-1-(2-((tetrahydro-2H-pyran-4-yl)amino)pyrimidin-4-yl)-1H-benzo[d]imidazole-5-ol] returned an IC50 of more than 100 nM. On to `Oc1ccc2c(c1)nc(-c1ccc(Cl)c(Cl)c1)n2-c1ccnc(NC2CCOCC2)n1` [Compound 9e], for which the IC50 fell in the range of 30 to 100 nM. The same measure, in the same setting: in the case of `Oc1ccc2c(c1)nc(-c1ccc(F)c(C(F)(F)F)c1)n2-c1ccnc(NC2CCOCC2)n1` [Compound 9f, 2-(4-fluoro-3-(trifluoromethyl)phenyl)-1-(2-((tetrahydro-2H-pyran-4-yl)amino)pyrimidin-4-yl)-1H-benzo[d]imidazole-5-ol] it was 30 to 100 nM; in that of `Oc1ccc2c(c1)nc(-c1ccc3ccccc3c1)n2-c1ccnc(NC2CCCCC2)n1` [Compound 10a, 1-(2-(cyclohexylamino)pyrimidin-4-yl)-2-(naphthalene-2-yl)-1H-benzo[d]imidazole-5-ol], more than 100 nM. `Oc1ccc2c(c1)nc(-c1ccc3c(c1)OCCO3)n2-c1ccnc(NC2CCCCC2)n1` [Compound 10c, 1-(2-(cyclohexylamino)pyrimidin-4-yl)-2-(2,3-dihydrobenzo[b][1,4]dioxin-6-yl)-1H-benzo[d]imidazole-5-ol] yielded an IC50 of more than 100 nM. The same measure, in the same setting: in the case of `Oc1ccc2c(c1)nc(-c1ccc3occc3c1)n2-c1ccnc(NC2CCCCC2)n1` [Compound 10d, 2-(benzofuran-5-yl)-1-(2-(cyclohexylamine)pyrimidin-4-yl)-1H-benzo[d]imidazole-5-ol] it was more than 100 nM; in that of `Oc1ccc2c(c1)nc(-c1ccc(Cl)c(Cl)c1)n2-c1ccnc(NC2CCCCC2)n1` [Compound 10e, 1-(2-(cyclohexylamino)pyrimidin-4-yl)-2-(3,4-dichlorophenyl)-1H-benzo[d]imidazole-5-ol], more than 100 nM; in that of `Oc1ccc2c(c1)nc(-c1ccc(F)c(C(F)(F)F)c1)n2-c1ccnc(NC2CCCCC2)n1` [Compound 10f, 1-(2-(cyclohexylamino)pyrimidin-4-yl)-2-(4-fluoro-3-(trifluoromethyl)phenyl)-1H-benzo[d]imidazole-5-ol], more than 100 nM. `O=C(C1CC1)N1CCC[C@H](Nc2nccc(-n3c(-c4ccc5ccccc5c4)nc4cc(O)ccc43)n2)C1` [Compound 13a, (S)-cyclopropyl(3-((4-(5-hydroxy-2-(naphthalene-2-yl)-1H-benzo[d]imidazole-1-yl)pyrimidin-2-yl)amino)piperidine-1-yl)methanone] came in with an IC50 of 30 to 100 nM.

The compound `O=C(C1CC1)N1CCC[C@H](Nc2nccc(-n3c(-c4ccc5ccccc5n4)nc4cc(O)ccc43)n2)C1` [Compound 13b, (S)-cyclopropyl(3-((4-(5-hydroxy-2-(Quinoline-2-yl)-1H-benzo[d]imidazole-1-yl)pyrimidin-2-yl)amino)piperidine-1-yl)methanone] had an IC50 of 30 to 100 nM. `O=C(C1CC1)N1CCC[C@H](Nc2nccc(-n3c(-c4ccc5c(c4)OCCO5)nc4cc(O)ccc43)n2)C1` [Compound 13c, (S)-cyclopropyl(3-((4-(2-(2,3-dihydrobenzo[b][1,4]dioxin-6-yl)-5-hydroxy-1H-benzo[d]imidazole-1-yl)pyrimidin-2-yl)amino)piperidine-1-yl)methanone] returned an IC50 of 30 to 100 nM. The compound `O=C(C1CC1)N1CCC[C@H](Nc2nccc(-n3c(-c4ccc5occc5c4)nc4cc(O)ccc43)n2)C1` [Compound 13d, (S)-(3-(4-(2-(benzofuran-5-yl)-5-hydroxy-1H-benz[d]imidazole-1-yl)pyrimidin-2-ylamino)piperidine-1-yl)(cyclopropyl)methanone] gave an IC50 of less than 30 nM. Still for that read-out and setting: in the case of `O=C(C1CC1)N1CCC[C@H](Nc2nccc(-n3c(-c4ccc(Cl)c(Cl)c4)nc4cc(O)ccc43)n2)C1` [Compound 13e, (S)-cyclopropyl(3-((4-(2-(3,4-dichlorophenyl)-5-hydroxy-1H-benzo[d]imidazole-1-yl)pyrimidin-2-yl)amino)piperidine-1-yl)methanone] it was less than 30 nM. On to `O=C(C1CC1)N1CCC[C@H](Nc2nccc(-n3c(-c4ccc(F)c(C(F)(F)F)c4)nc4cc(O)ccc43)n2)C1` [Compound 13f, (S)-cyclopropyl(3-((4-(2-(4-fluoro-3-(trifluoromethyl)phenyl)-5-hydroxy-1H-benzo[d]imidazole-1-yl)pyrimidin-2-yl)amino)piperidine-1-yl)methanone], for which the IC50 lay within 30 to 100 nM. The same measure, in the same setting: the result for `O=C(C1CC1)N1CCC[C@H](Nc2nccc(-n3c(-c4ccc5c(c4)OCO5)nc4cc(O)ccc43)n2)C1` [Compound 13g, (S)-(3-(4-(2-(benzo[d][1,3]dioxole-5-yl)-5-hydroxy-1H-benz[d]imidazole-1-yl)pyrimidin-2-ylamino)piperidine-1-yl)(cyclopropyl)methanone] reads 30 to 100 nM.

The same test, now with this note: Table 2; ATP 10 μM, ATF2 3 μM.
For the compound `Oc1ccc2nc(-c3ccc4ccccc4c3)n(-c3ccnc(NC4CCOCC4)n3)c2c1` [Compound 22a, 2-(naphthalene-2-yl)-1-(2-((tetrahydro-2H-pyran-4-yl)amino)pyrimidin-4-yl)-1H-benzo[d]imidazole-6-ol], the IC50 fell in the range of 30 to 100 nM.

Take `Oc1ccc2nc(-c3ccc4ccccc4n3)n(-c3ccnc(NC4CCOCC4)n3)c2c1` [Compound 22b, 2-(Quinoline-2-yl)-1-(2-((tetrahydro-2H-pyran-4-yl)amino)pyrimidin-4-yl)-1H-benzo[d]imidazole-6-ol]: the IC50 is 30 to 100 nM. On the same count and under the same terms, the result for `Oc1ccc2nc(-c3ccc4c(c3)OCCO4)n(-c3ccnc(NC4CCOCC4)n3)c2c1` [Compound 22c, 2-(2,3-dihydrobenzo[b][1,4]dioxin-6-yl)-1-(2-((tetrahydro-2H-pyran-4-yl)amino)pyrimidin-4-yl)-1H-benzo[d]imidazole-6-ol] reads 30 to 100 nM; that for `Oc1ccc2nc(-c3ccc4occc4c3)n(-c3ccnc(NC4CCOCC4)n3)c2c1` [Compound 22d, 2-(benzofuran-5-yl)-1-(2-((tetrahydro-2H-pyran-4-yl)amino)pyrimidin-4-yl)-1H-benzo[d]imidazole-6-ol], 30 to 100 nM. Same read-out and setting: the result for `Oc1ccc2nc(-c3ccc4ccccc4c3)n(-c3ccnc(NC4CCCCC4)n3)c2c1` [Compound 23a, 1-(2-(cyclohexylamino)pyrimidin-4-yl)-2-(naphthalene-2-yl)-1H-benzo[d]imidazole-6-ol] reads more than 100 nM; that for `Oc1ccc2nc(-c3ccc4ccccc4n3)n(-c3ccnc(NC4CCCCC4)n3)c2c1` [Compound 23b, 3-(2-(cyclohexylamino)pyrimidin-4-yl)-2-(Quinoline-2-yl)-3H-benz[d]imidazole-5-ol], more than 100 nM; that for `Oc1ccc2nc(-c3ccc4c(c3)OCCO4)n(-c3ccnc(NC4CCCCC4)n3)c2c1` [Compound 23c, 1-(2-(cyclohexylamino)pyrimidin-4-yl)-2-(2,3-dihydrobenzo[b][1,4]dioxin-6-yl)-1H-benzo[d]imidazole-6-ol], more than 100 nM. On the same count and under the same terms, in the case of `Oc1ccc2nc(-c3ccc4occc4c3)n(-c3ccnc(NC4CCCCC4)n3)c2c1` [Compound 23d, 2-(benzofuran-5-yl)-1-(2-(cyclohexylamino)pyrimidin-4-yl)-1H-benzo[d]imidazole-6-ol] it was more than 100 nM; in that of `Oc1ccc2nc(-c3ccc(Cl)c(Cl)c3)n(-c3ccnc(NC4CCCCC4)n3)c2c1` [Compound 23e, 1-(2-(cyclohexylamino)pyrimidin-4-yl)-2-(3,4-dichlorophenyl)-1H-benzo[d]imidazole-6-ol], 30 to 100 nM; in that of `Oc1ccc2nc(-c3ccc(F)c(C(F)(F)F)c3)n(-c3ccnc(NC4CCCCC4)n3)c2c1` [Compound 23f, 1-(2-(cyclohexylamino)pyrimidin-4-yl)-2-(4-fluoro-3-(trifluoromethyl)phenyl)-1H-benzo[d]imidazole-6-ol], more than 100 nM. Turning to `O=C(C1CC1)N1CCC[C@H](Nc2nccc(-n3c(-c4ccc5ccccc5n4)nc4ccc(O)cc43)n2)C1` [Compound 26b, (S)-cyclopropyl(3-(4-(6-hydroxy-2-(Quinoline-2-yl)-1H-benzo[d]imidazole-1-yl)pyrimidin-2-ylamino)piperidine-1-yl)methanone], the IC50 lay in the range of 30 to 100 nM.

In turn, `O=C(C1CC1)N1CCC[C@H](Nc2nccc(-n3c(-c4ccc5occc5c4)nc4ccc(O)cc43)n2)C1` [Compound 26d, (S)-(3-((4-(2-(benzofuran-5-yl)-6-hydroxy-1H-benzo[d]imidazole-1-yl)pyrimidin-2-yl)amino)piperidine-1-yl)(cyclopropyl)methanone] returned an IC50 of less than 30 nM.

As to `O=C(C1CC1)N1CCC[C@H](Nc2nccc(-n3c(-c4ccc(Cl)c(Cl)c4)nc4ccc(O)cc43)n2)C1` [Compound 26e, (S)-cyclopropyl(3-((4-(2-(3,4-dichlorophenyl)-6-hydroxy-1H-benzo[d]imidazole-1-yl)pyrimidin-2-yl)amino)piperidine-1-yl)methanone], the IC50 is less than 30 nM.
